Data taken from patent US10729135B2, “Methods of controlling pests using terpendoles” (priority 2017, dated 2020).

What was measured:
Test in all cases: whole plant or invertebrate
Format in all cases: in vivo
[1] = system: western flower thrips (Frankliniella occidentalis)
Procedure: (§1) A bioefficacy assay utilizing terpendole C was conducted on the lepidopterans: diamondback moth (Plutella xylostella) and common cutworm (Spodoptera litura): the whitefly, tobacco whitefly (Bemisia tabaci) the thrips, western flower thrips (Frankliniella occidentalis); the planthopper, brown rice planthopper (Nilaparvata lugens); the aphids, cotton aphid (Aphis gossypii), foxglove aphid (Aulacorthum solani), cabbage aphid (Brevicoryne brassicae), birdcherry-oat aphid (Rhopalosiphum padi), green peach aphid (Myzus persicae); and the mite, two-spotted spider mite (Tetranychus urticae). Specifically, terpendole C was diluted with acetone and 5% Tween® 20 and finally diluted with water to prepare spray solutions. Terpendole C was then applied to plants as a foliar spray at 500, 200, 50, 12.5, 3.1, 1, 0.8 and/or 0.2 ppm and/or as a soil treatment at 2,500, 1,000, 250, 63, 16, 4 and/or 1 ppm. Pests were then placed on the plant or in the soil. Further, mortality and appetite suppression were recorded at 6, 7 and/or 13 days after treatment (“DAT”) and are reported in Tables 2 and 3, below, respectively.

[2] = system: tobacco whitefly (Bemisia tabaci)
Procedure: as §1

[3] = system: cotton aphid (Aphis gossypii)
Procedure: as §1

[4] = system: brown rice planthopper (Nilaparvata lugens); conditions: 3rd-4th instar, 6 DAT
Procedure: as §1

[5] = system: diamondback moth (Plutella xylostella)
Procedure: as §1

[6] = system: cabbage aphid (Brevicoryne brassicae)
Procedure: as §1

## CC(C)=C[C@H]1O[C@H]2[C@H]3O[C@@]34[C@H](CC[C@@]3(C)[C@@]4(O)CC[C@H]4Cc5c([nH]c6ccccc56)[C@@]43C)O[C@@H]2C(C)(C)O1 [Terpendole C, terpendole C]
[1]; 50 ppm, Kidney Bean, 1st-2nd instar, 6 DAT
  Appetite suppression score: 3-4
[1]; 200 ppm, Kidney Bean, 1st-2nd instar, 6 DAT
  Appetite suppression score: 3-4
[1]; 500 ppm, Kidney Bean, 1st-2nd instar, 6 DAT
  Appetite suppression score: 3-4
[1]; Frankliniella occidentalis, 144 h, 0.2 ppm, Kidney Bean, 1st-2nd instar, 6 DAT, read-out: Mortality score
  mortality at 0.2 ppm: < 29%
[1]; Frankliniella occidentalis, 144 h, 0.8 ppm, Kidney Bean, 1st-2nd instar, 6 DAT, read-out: Mortality score
  mortality at 0.8 ppm: < 29%
[1]; Frankliniella occidentalis, 144 h, 3.1 ppm, Kidney Bean, 1st-2nd instar, 6 DAT, read-out: Mortality score
  mortality at 3.1 ppm: < 29%
[1]; Frankliniella occidentalis, 144 h, 12.5 ppm, Kidney Bean, 1st-2nd instar, 6 DAT, read-out: Mortality score
  mortality at 12.5 ppm: < 29%
[1]; Frankliniella occidentalis, 144 h, 50 ppm, Kidney Bean, 1st-2nd instar, 6 DAT, read-out: Mortality score
  mortality at 50 ppm: < 29%
[1]; Frankliniella occidentalis, 144 h, 200 ppm, Kidney Bean, 1st-2nd instar, 6 DAT, read-out: Mortality score
  mortality at 200 ppm: < 29%
[1]; Frankliniella occidentalis, 144 h, 500 ppm, Kidney Bean, 1st-2nd instar, 6 DAT, read-out: Mortality score
  mortality at 500 ppm: < 29%
[1]; summary of results
  control of the thrips (in words): significantly controlled
[2]; 12.5 ppm, Cabbage, 1st instar, 7 DAT
  Mortality score: 0-2
[2]; Bemisia tabaci, 168 h, 0.8 ppm, Cabbage, 1st instar, 7 DAT, read-out: Mortality score
  mortality at 0.8 ppm: < 29%
[2]; Bemisia tabaci, 168 h, 1 ppm, Cabbage, 1st instar, 7 DAT, read-out: Mortality score (converted)
  mortality at 1 ppm: 50%
[2]; Bemisia tabaci, 168 h, 3.1 ppm, Cabbage, 1st instar, 7 DAT, read-out: Mortality score (converted)
  mortality at 3.1 ppm: 50%
[2]; Bemisia tabaci, 168 h, 50 ppm, Cabbage, 1st instar, 7 DAT, read-out: Mortality score
  mortality at 50 ppm: < 29%
[2]; Bemisia tabaci, 168 h, 200 ppm, Cabbage, 1st instar, 7 DAT, read-out: Mortality score
  mortality at 200 ppm: < 29%
[2]; Bemisia tabaci, 168 h, 500 ppm, Cabbage, 1st instar, 7 DAT, read-out: Mortality score
  mortality at 500 ppm: < 29%
[2]; summary of results
  control of the whitefly (in words): significantly controlled
[3]; 12.5 ppm, Cucumber, All stages, 6 DAT
  Mortality score: 3-4
[3]; Aphis gossypii, 144 h, 0.2 ppm, Cucumber, All stages, 6 DAT, read-out: Mortality score
  mortality at 0.2 ppm: < 29%
[3]; Aphis gossypii, 144 h, 0.8 ppm, Cucumber, All stages, 6 DAT, read-out: Mortality score (converted)
  mortality at 0.8 ppm: 75%
[3]; Aphis gossypii, 144 h, 3.1 ppm, Cucumber, All stages, 6 DAT, read-out: Mortality score (converted)
  mortality at 3.1 ppm: 90%
[3]; Aphis gossypii, 144 h, 50 ppm, Cucumber, All stages, 6 DAT, read-out: Mortality score (converted)
  mortality at 50 ppm: 90%
[3]; Aphis gossypii, 144 h, 200 ppm, Cucumber, All stages, 6 DAT, read-out: Mortality score (converted)
  mortality at 200 ppm: 100%
[3]; Aphis gossypii, 144 h, 500 ppm, Cucumber, All stages, 6 DAT, read-out: Mortality score (converted)
  mortality at 500 ppm: 100%
[3]; summary of Table 2
  control of cotton aphids (in words): effectively controlled
[4]; 12.5 ppm
  Mortality score: 0-1
[4]; Nilaparvata lugens, 144 h, 0.2 ppm, read-out: Mortality score
  mortality at 0.2 ppm: < 29%
[4]; Nilaparvata lugens, 144 h, 0.8 ppm, read-out: Mortality score
  mortality at 0.8 ppm: < 29%
[4]; Nilaparvata lugens, 144 h, 3.1 ppm, read-out: Mortality score
  mortality at 3.1 ppm: < 29%
[4]; Nilaparvata lugens, 144 h, 50 ppm, read-out: Mortality score
  mortality at 50 ppm: < 29%
[4]; Nilaparvata lugens, 144 h, 200 ppm, read-out: Mortality score
  mortality at 200 ppm: < 29%
[4]; Nilaparvata lugens, 144 h, 500 ppm, read-out: Mortality score
  mortality at 500 ppm: < 29%
[5]; 12.5 ppm, Cabbage, 3rd instar, 6 DAT
  Appetite suppression score: 0
[5]; 50 ppm, Cabbage, 3rd instar, 6 DAT
  Appetite suppression score: 0
[5]; 200 ppm, Cabbage, 3rd instar, 6 DAT
  Appetite suppression score: 3 (3 = about 60% suppression)
[5]; 500 ppm, Cabbage, 3rd instar, 6 DAT
  Appetite suppression score: 4 (4 = 70-100% suppression)
[5]; Plutella xylostella, 144 h, 12.5 ppm, Cabbage, 3rd instar, 6 DAT, read-out: Mortality score (converted)
  mortality at 12.5 ppm: 50%
[5]; Plutella xylostella, 144 h, 50 ppm, Cabbage, 3rd instar, 6 DAT, read-out: Mortality score (converted)
  mortality at 50 ppm: 50%
[5]; Plutella xylostella, 144 h, 200 ppm, Cabbage, 3rd instar, 6 DAT, read-out: Mortality score (converted)
  mortality at 200 ppm: 90%
[5]; Plutella xylostella, 144 h, 500 ppm, Cabbage, 3rd instar, 6 DAT, read-out: Mortality score (converted)
  mortality at 500 ppm: 100%
[5]; either by killing the larvae or suppressing the appetite of the larvae
  control of diamondback moth (in words): effectively controlled
[6]; Brevicoryne brassicae, 144 h, 0.8 ppm, Cabbage, All stages, 6 DAT, read-out: Mortality score (converted)
  mortality at 0.8 ppm: 75%
[6]; Brevicoryne brassicae, 144 h, 3.1 ppm, Cabbage, All stages, 6 DAT, read-out: Mortality score (converted)
  mortality at 3.1 ppm: 75%
[6]; Brevicoryne brassicae, 144 h, 12.5 ppm, Cabbage, All stages, 6 DAT, read-out: Mortality score (converted)
  mortality at 12.5 ppm: 100%
[6]; Brevicoryne brassicae, 144 h, 50 ppm, Cabbage, All stages, 6 DAT, read-out: Mortality score (converted)
  mortality at 50 ppm: 100%
[6]; Brevicoryne brassicae, 144 h, 200 ppm, Cabbage, All stages, 6 DAT, read-out: Mortality score (converted)
  mortality at 200 ppm: 100%
[6]; summary of Table 2
  control of cabbage aphids (in words): effectively controlled
